Reference: patent US12052991B2, “Substituted pyridinyloxybenzenes and salts thereof and use thereof as herbicidal agents” (Bayer Aktiengesellschaft, priority 2018, dated 2024)

Assays:
Type in all cases: in vivo
Agrostis tenuis (AGSTE) = assay: Herbicidal early post-emergence action (Table A1); settings: 1900 g/ha; scored visually 9 to 12 days after treatment; 100% = plants have died, 0% = like control plants
Method: (§1) Seeds of monocotyledonous and dicotyledonous weed plants were placed in 96-well microtiter plates in quartz sand and grown in a climatized chamber under controlled growth conditions. 5 to 7 days after sowing, the test plants were treated at the cotyledon stage. The compounds according to the invention, formulated in the form of emulsion concentrates (EC), were applied with a water application rate of the equivalent of 2200 liters per hectare. After the test plants had been left to stand in the climatized chamber for 9 to 12 days under optimum growth conditions, the effect of the preparations was scored visually in comparison to untreated controls. For example, 100% activity=the plants have died, 0% activity=like control plants. Tables A1 to A8 below show the effects of selected compounds of the general formula (I) according to Table 1 on various harmful plants and an application rate corresponding to 1900 g/ha, which were obtained by the experimental procedure mentioned above.

Poa annua (POAAN) [1] = assay: Herbicidal early post-emergence action (Table A3); settings: 1900 g/ha; scored visually 9 to 12 days after treatment; 100% = plants have died, 0% = like control plants
Method: as §1

[2] = test system: harmful plants AGSTE, DIPTE, LOLPE, MATCH, POAAN, SETVI, STEME and VERPE; assay: Herbicidal early post-emergence action, summary of Tables A1-A8; settings: application rate of 1900 g of active ingredient per hectare; summary in words
Method: as §1, with “plants.” for “plants. Tables A1 to A8 below show the effects of selected compounds of the general formula (I) according to Table 1 on various harmful plants and an application rate corresponding to 1900 g/ha, which were obtained by the experimental procedure mentioned above.”
Tables A1 to A8 below show the effects of selected compounds of the general formula (I) according to Table 1 on various harmful plants and an application rate corresponding to 1900 g/ha, which were obtained by the experimental procedure mentioned above.
As the results of Tables A1-A8 show, compounds no.

[3] = test system: Matricaria inodora (MATIN); assay: Herbicidal pre-emergence action, test C (Table C7); settings: visual scoring after about 3 weeks, 100% = plants have died, 0% = like control plants
In short: (§2)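 In this test, soil-covered weed seeds in sandy loam received a surface application of compound at 1280 or 320 g/ha. Effects were rated visually as percentages compared with untreated controls roughly 3 weeks later.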

Veronica persica (VERPE) [4] = assay: Herbicidal pre-emergence action, test C (Table C12); settings: visual scoring vs untreated controls
In short: as §2

Bassia scoparia (KCHSC) [5] = assay: Herbicidal pre-emergence action, test C (Table C11); settings: dosage 1280 g/ha, visual scoring vs untreated controls
In short: as §2

[6] = test system: Abutilon theophrasti (ABUTH); assay: Herbicidal post-emergence action (Table B5); settings: rated visually after about 3 weeks, 100% = plants have died, 0% = like control plants
In short: (§3)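 Visual percent activity relative to untreated controls (100% = plants dead, 0% = like controls) was scored about 3 weeks after treatment. Plants had been sprayed at the one-leaf stage with formulated compound at 1280 or 320 g/ha in 600 L/ha water containing 0.5% additive.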

Poa annua (POAAN) [7] = assay: Herbicidal post-emergence action (Table B3); settings: rated visually after about 3 weeks, 100% = plants have died, 0% = like control plants
In short: as §3

Stellaria media (STEME) [8] = assay: Herbicidal pre-emergence action, test C (Table C8); settings: visual scoring after about 3 weeks, 100% = plants have died, 0% = like control plants
In short: as §2

[9] = test system: harmful plants ABUTH, AMARE, ECHCG, LOLRI, MATIN, POAAN, SETVI, STEME, ALOMY, DIGSA, KCHSC and VERPE; assay: Herbicidal post-emergence action, summary of Tables B1-B12; settings: application rate of 1280 or 320 g of active ingredient per hectare; summary in words
In short: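 Greenhouse weeds in sandy loam treated post-emergence at the one-leaf stage, 2–3 weeks after sowing, with WP or EC formulations sprayed with 0.5% additive at 600 L/ha water, 1280 or 320 g/ha. Damage rated visually after about 3 weeks versus untreated controls (0% = like control, 100% = dead).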

[10] = test system: Amaranthus retroflexus (AMARE); assay: Herbicidal post-emergence action (Table B6); settings: dosage 1280 g/ha; visual rating about 3 weeks after treatment; 100% = plants have died, 0% = like control plants
In short: as §3

[11] = test system: Echinochloa crus-galli (ECHCG); assay: Herbicidal pre-emergence action, test C (Table C1); settings: dosage 1280 g/ha; visual scoring after about 3 weeks; 100% = plants have died, 0% = like control plants
In short: as §2

Bassia scoparia (KCHSC) [12] = assay: Herbicidal post-emergence action (Table B11); settings: dosage 1280 g/ha; visual rating about 3 weeks after treatment; 100% = plants have died, 0% = like control plants
In short: as §3

[13] = test system: harmful plants ABUTH, AMARE, ECHCG, LOLRI, MATIN, POAAN, SETVI, STEME, ALOMY, DIGSA, KCHSC and VERPE; assay: Herbicidal pre-emergence action (test C), summary of Tables C1-C12; settings: application rate of 1280 or 320 g of active ingredient per hectare; summary in words
In short: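 Pre-emergence pot test in sandy loam: WP or EC formulations were sprayed onto the covering soil with 0.5% additive at 600 L/ha water, at 1280 or 320 g/ha. Plants were kept in the greenhouse, and activity was rated visually about 3 weeks later as % versus untreated controls (100% = dead).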

Poa annua (POAAN) [14] = assay: Herbicidal pre-emergence action, test C (Table C3); settings: visual scoring after about 3 weeks, 100% = plants have died, 0% = like control plants
In short: as §2

Veronica persica (VERPE) [15] = assay: Herbicidal post-emergence action (Table B12); settings: visual rating about 3 weeks after treatment, 100% = plants have died, 0% = like control plants
In short: as §3

[16] = test system: Alopecurus myosuroides (ALOMY); assay: Herbicidal post-emergence action (Table B9); settings: rated visually after about 3 weeks, 100% = plants have died, 0% = like control plants
In short: as §3

Stellaria media (STEME) [17] = assay: Herbicidal post-emergence action (Table B8); settings: visual rating about 3 weeks after treatment, 100% = plants have died, 0% = like control plants
In short: as §3

Setaria viridis (SETVI) = assay: Herbicidal pre-emergence action, test C (Table C4); settings: dosage 1280 g/ha; visual scoring after about 3 weeks; 100% = plants have died, 0% = like control plants
In short: as §2

[18] = test system: Digitaria sanguinalis (DIGSA); assay: Herbicidal pre-emergence action, test C (Table C10); settings: dosage 1280 g/ha; visual scoring after about 3 weeks; 100% = plants have died, 0% = like control plants
In short: as §2

[19] = test system: Alopecurus myosuroides (ALOMY); assay: Herbicidal pre-emergence action, test C (Table C9); settings: visual scoring after about 3 weeks, 100% = plants have died, 0% = like control plants
In short: as §2

[20] = test system: Abutilon theophrasti (ABUTH); assay: Herbicidal pre-emergence action, test C (Table C5); settings: visual scoring after about 3 weeks, 100% = plants have died, 0% = like control plants
In short: as §2

[21] = test system: Amaranthus retroflexus (AMARE); assay: Herbicidal pre-emergence action, test C (Table C6); settings: visual scoring after about 3 weeks, 100% = plants have died, 0% = like control plants
In short: as §2

[22] = test system: Echinochloa crus-galli (ECHCG); assay: Herbicidal post-emergence action (Table B1); settings: 1280 g/ha; rated visually after about 3 weeks; 100% = plants have died, 0% = like control plants
In short: as §3

[23] = test system: Matricaria inodora (MATIN); assay: Herbicidal post-emergence action (Table B7); settings: rated visually after about 3 weeks, 100% = plants have died, 0% = like control plants
Method: Seeds of mono- and dicotyledonous weed plants were placed in plastic pots in sandy loam soil (doubly sown with in each case one species of mono- or dicotyledonous weed plants per pot), covered with soil and cultivated in a greenhouse under controlled growth conditions. 2 to 3 weeks after sowing, the test plants were treated at the one-leaf stage. The compounds of the invention, formulated in the form of wettable powders (WP) or as emulsion concentrates (EC), were applied onto the green parts of the plants as aqueous suspension or emulsion with addition of 0.5% additive at a water application rate of 600 liters per hectare (converted). After the test plants had been kept in the greenhouse under optimum growth conditions for about 3 weeks, the activity of the preparations was rated visually in comparison to untreated controls. For example, 100% activity=the plants have died, 0% activity=like control plants. Tables B1 to B12 below show the effects of selected compounds of the general formula (I) according to Table 1 on various harmful plants and an application rate corresponding to 1280 or 320 g/ha, which were obtained by the experimental procedure mentioned above.

`Cc1cc(F)c(-c2cc(C(F)F)on2)c(Oc2ncc(Cl)cc2F)c1` [Example 1-87] was tested, and the “Early post-emergence effect against Agrostis tenuis (AGSTE)” value (Agrostis tenuis (AGSTE)) was 80%, the “Early post-emergence effect against Poa annua (POAAN)” value (Poa annua (POAAN) [1]) was 80% and the “herbicidal activity against the harmful plants of Tables A1-A8 in early post-emergence treatment” value [2] was “very good herbicidal activity”.

For `Cc1ccc(-c2ccccc2Oc2ncc(Cl)cc2F)nc1` [Example 1-106], the “Early post-emergence effect against Poa annua (POAAN)” value (Poa annua (POAAN) [1]) was 80% and the “herbicidal activity against the harmful plants of Tables A1-A8 in early post-emergence treatment” value [2] was “very good herbicidal activity”.

In the case of `Cc1cc(C)c(-c2cc(C(F)F)no2)c(Oc2ccccn2)c1` [Example 1-86], the “Pre-emergence action against Matricaria inodora (MATIN)” value ([3]; dosage 320 g/ha) was 90%, the “Pre-emergence action against Matricaria inodora (MATIN)” value ([3]; dosage 1280 g/ha) was 100% and the “Pre-emergence action against Veronica persica (VERPE)” value (Veronica persica (VERPE) [4]; dosage 320 g/ha) was 90%. For the same compound, the “Pre-emergence action against Veronica persica (VERPE)” value (Veronica persica (VERPE) [4]; dosage 1280 g/ha) was 100%, the “Pre-emergence action against Bassia scoparia (KCHSC)” value (Bassia scoparia (KCHSC) [5]) was 100% and the “Post-emergence action against Abutilon theophrasti (ABUTH)” value ([6]; 320 g/ha) was 100%. The “Post-emergence action against Abutilon theophrasti (ABUTH)” value ([6]; 1280 g/ha) was 100%, the “Post-emergence action against Poa annua (POAAN)” value (Poa annua (POAAN) [7]; 320 g/ha) was 100% and the “Post-emergence action against Poa annua (POAAN)” value (Poa annua (POAAN) [7]; 1280 g/ha) was 100%. The “Pre-emergence action against Stellaria media (STEME)” value (Stellaria media (STEME) [8]; dosage 320 g/ha) was 90%, the “Pre-emergence action against Stellaria media (STEME)” value (Stellaria media (STEME) [8]; dosage 1280 g/ha) was 100% and the “herbicidal activity against the harmful plants of Tables B1-B12 in post-emergence treatment” value [9] was “very good herbicidal activity”. For the same compound, the “Post-emergence action against Amaranthus retroflexus (AMARE)” value [10] was 100%, the “Pre-emergence action against Echinochloa crus-galli (ECHCG)” value [11] was 100% and the “Post-emergence action against Bassia scoparia (KCHSC)” value (Bassia scoparia (KCHSC) [12]) was 90%. The “herbicidal activity against the harmful plants of Tables C1-C12 in pre-emergence treatment” value [13] was “very good herbicidal activity”, the “Pre-emergence action against Poa annua (POAAN)” value (Poa annua (POAAN) [14]; dosage 320 g/ha) was 90% and the “Pre-emergence action against Poa annua (POAAN)” value (Poa annua (POAAN) [14]; dosage 1280 g/ha) was 100%. For the same compound, the “Post-emergence action against Veronica persica (VERPE)” value (Veronica persica (VERPE) [15]; dosage 320 g/ha) was 100%, the “Post-emergence action against Veronica persica (VERPE)” value (Veronica persica (VERPE) [15]; dosage 1280 g/ha) was 100% and the “Post-emergence action against Alopecurus myosuroides (ALOMY)” value ([16]; 320 g/ha) was 100%. For the same compound, the “Post-emergence action against Alopecurus myosuroides (ALOMY)” value ([16]; 1280 g/ha) was 100%, the “Post-emergence action against Stellaria media (STEME)” value (Stellaria media (STEME) [17]; dosage 320 g/ha) was 100% and the “Post-emergence action against Stellaria media (STEME)” value (Stellaria media (STEME) [17]; dosage 1280 g/ha) was 100%. For the same compound, the “Pre-emergence action against Setaria viridis (SETVI)” value (Setaria viridis (SETVI)) was 100%, the “Pre-emergence action against Digitaria sanguinalis (DIGSA)” value [18] was 100% and the “Pre-emergence action against Alopecurus myosuroides (ALOMY)” value ([19]; dosage 320 g/ha) was 90%. The “Pre-emergence action against Alopecurus myosuroides (ALOMY)” value ([19]; dosage 1280 g/ha) was 90%, the “Pre-emergence action against Abutilon theophrasti (ABUTH)” value ([20]; dosage 320 g/ha) was 90% and the “Pre-emergence action against Abutilon theophrasti (ABUTH)” value ([20]; dosage 1280 g/ha) was 100%. The “Pre-emergence action against Amaranthus retroflexus (AMARE)” value ([21]; dosage 320 g/ha) was 100%, the “Pre-emergence action against Amaranthus retroflexus (AMARE)” value ([21]; dosage 1280 g/ha) was 100% and the “Post-emergence action against Echinochloa crus-galli (ECHCG)” value [22] was 100%. The “Post-emergence action against Matricaria inodora (MATIN)” value ([23]; 320 g/ha) was 100% and the “Post-emergence action against Matricaria inodora (MATIN)” value ([23]; 1280 g/ha) was 100%.
